Reference: US10039806B2, “Methods and compositions for treating antiprogestin-resistant cancers” (Fundación Sales, priority 2011, dated 2018)

Legend:
T47D-YB cells = details: 100 nM; cited from earlier work
[1] = test system: MXT mouse model of breast cancer; details: 1 or 10 mg/kg/day from one day post-transplantation; cited from earlier work
breast cancer = details: cited from earlier work
[2] = test system: C4-HI or C4-HIR epithelial cells with carcinoma-associated fibroblasts; test: (3H)-thymidine uptake, co-cultures with carcinoma-associated fibroblasts; assay type: cell-based, mouse; details: own or other tumor's fibroblasts
Protocol: Trypsinized cells were resuspended and equal amounts of epithelial cells and carcinoma-associated fibroblasts were seeded with 10% FCS that was replaced after attachment by 1% steroid-stripped FCS. […] The same amount of epithelial cells or carcinoma-associated fibroblasts or double the amount of purified cells was used for comparison.
(3H)-thymidine-uptake was used as an indirect method to evaluate cell proliferation. In brief, cells were seeded into 96-well microplates. After attachment (24 h), the cells were incubated for 24 h with 1% steroid-stripped FCS and then for 48 h with the experimental solutions to be tested in 1% chFCS. Fifty percent of the medium was replaced with fresh medium every 24 h. The cells were incubated with 0.4 μCi of 3H-thymidine (specific activity: 20 Ci/mmol) for 24 h, trypsinized, and harvested in a cell harvester. In experiments in which 5azadC was used, the experiments were carried out using proliferating cells (presence of 10% FCS) to guarantee the effect of the demethylating agent. Three different experiments were made using octuplicates, and the means and standard deviations of one representative experiment of the other three are shown. The results are expressed as the proliferation index (cpm […] experimental group/cpm control; mean±SEM).

[3] = test system: BT-474 and T47D xenografts; details: 25 mg; mice treated with E2 followed by MPA; cited from earlier work
[4] = test system: DMBA-induced mammary tumors; details: cited from earlier work
HI-responsive tumors = test: MPA breast cancer model, HI-responsive tumors in vivo; design: species or system mouse; details: 1 mg/kg/day
[5] = test system: epithelial cells from breast cancer samples; test: Primary cultures from breast cancer samples: cell number or Ki67; assay type: cell-based, human
Source text: The samples were obtained at surgery from patients diagnosed with breast cancer at the […]. de Martinez Hospital from General Pacheco and at the […] Hospital of Buenos Aires after signing the informed consent (n=70; median age 55 year). Protocols were approved by the Institutional Ethical Review Board. Whenever possible, one piece of the sample was kept in dry ice immediately after surgery and another piece was kept in culture medium and transported to IBYME. Tumor samples were processed by mechanical and enzymatic degradation and epithelial cells were purified by differential sedimentation techniques (7). The epithelial cells were cultured with DMEM/F12 medium plus 10% fetal calf serum (FCS). Once the cultures were overcrowded, they were subcultured and equal numbers of cells were seeded in 24 well plates. […] OH-Tamoxifen was also used as a control. After one week of treatment, the cells were trypsinized and the total number of cells in each well was counted or alternatively, they were fixed to evaluate the Ki67 (proliferation marker) expression by IHC. In several cases in which there were carcinoma associated fibroblasts intermingled with the epithelial cells, a double staining of Ki67 and cytokeratin (CK) was performed to consider the proliferating cells among the total number of epithelial cells (CK+). An inhibitory index was calculated for each tumor.

IBH-6-PRA tumors = test: Xenograft in nude mice; assay type: in vivo, human
Source text: BH-6 cell line was developed from an invasive ductal breast carcinoma (1). IBH-6 cells express basal levels of hormone receptors, they are tumorigenic and in vivo express higher levels of PRB than PRA (2). Cells were transfected with human PRB, PRA (pSG5-PRB, pSG5-PRA, kindly provided by K. Horwitz) or with the empty vector (pSG5), together with a plasmid encoding the neomycin resistance gene pIRES-N1(3), using Lipofectamine transfection reagent (Invitrogen) following the manufacturer's instructions. Transfected and selected cells were cultured in medium supplemented with […] G418 (neomycin analogue, GIBCO). The expression of PRB and PRA were analyzed by western blot and immunofluorescence (using Ab7 and Ab6 antibodies from Thermo Fisher). T47D-YA or YB were kindly provided by K. Horwitz and cultured as previously described (4).
Transfected and selected cells were grown up to confluence, washed with PBS, detached with 0.25% trypsin, centrifuged at 1000 rpm for 10 min and resuspended in a final concentration of 10^6 (IBH-6) or 5×10^6 (T47D) cells per 100 μl of culture medium. The cells were sc inoculated into the right flank of nu/nu (IBH-6) or NOD/LtSz-scid/IL-2Rgamma null (T47D-YA or -YB cells) female mice. Only in experiments involving T47D cells E2 silastic pellets (0.5 mg) were implanted sc into the back of the animals one week prior tumor cell inoculation and 70 μl of Matrigel were mixed with the cell suspension at the moment of injection. MFP (6 mg) silastic pellets were sc implanted when tumors reached 20-40 mm^2. For T47D cells, experiments were repeated inoculating both cell types (T47D-YA or -YB) simultaneously in the left or right flank of the mouse, respectively.
Cytosolic or nuclear extracts were processed for western blots as described previously (5). The cells were lysed using Mammalian Protein Extraction Reagent (Pierce, Rockford, Ill.) according to the manufacturer's instructions. […] The band intensities from 3-4 different samples in different western blots were quantified using Image Quant software.

[6] = 28 postmenopausal PR+ patients, 200 mg/day

Compound: CC#C[C@]1(O)CC[C@H]2[C@@H]3CCC4=CC(=O)CCC4=C3[C@@H](c3ccc(N(C)C)cc3)C[C@@]21C [RU-486, mifepristone]
- cell proliferation (T47D-YB cells): increased cell proliferation
- tumor take and stimulatory effects of E2 and MPA [1]: inhibited both tumor take and the stimulatory effects of E2 and MPA
- response rate (breast cancer; 22 patients, TAM-resistant metastases, 200 mg/day, following 3 months of therapy): 18%
- side effects: lethargy (breast cancer; 28 postmenopausal PR+ patients, 200 mg/day, more than 8 weeks): 68%
- partial response (breast cancer; [6]): 3 patients
- side effects: anorexia (breast cancer; [6]): 39%
- side effects: hot flashes (breast cancer; [6]): 50%
- side effects: skin rash (breast cancer; [6]): 32%
- side effects: vomiting (breast cancer; [6]): 29%
- clinical response (breast cancer; eleven patients with metastases, 200-400 mg daily p.o.): objective response in one patient, six patients showed temporal stabilization, and four patients had progressive disease
- co-culture cell proliferation [2]: inhibited
- growth of xenografts [3]: prevent the growth
- tumor development ([4]; 10 mg/kg/day for 3 weeks): delayed tumor development
- tumor growth ([4]; 10 mg/kg/day for 3 weeks): inhibited tumor growth
- PR (and ER) expression ([4]; rat, in vivo): induced down regulation of the PR
- tumor growth (HI-responsive tumors): inhibitory effects
- number of cells as compared to the controls ([5]; 10^-8 M, one week, 3 out of 8 cases, p<0.05): significant decrease in the number of cells
- cell proliferation, case #137 ([5]; ER+ PR+ invasive ductal carcinoma, high PR-A/PR-B, 10^-8 M): decrease in cell proliferation
- effect on cell proliferation ([5]; samples with high levels of PR-A expression): inhibitory effect
- in vitro responsiveness ([5]; three PR negative tumors): no in vitro responsiveness
- in vivo growth (IBH-6-PRA tumors; MFP 6 mg pellet, p<0.05): inhibited
- expression of MYC (IBH-6-PRA tumors; western blot, p<0.01): significantly inhibited
- expression of CCND1 (IBH-6-PRA tumors; western blot, p<0.05): significantly inhibited
